Experimental data: patent publication US20090105171A1, “Methods for Regenerating and Repairing Damaged Tissues Using Adrenomedullin” (priority 2005, published 2009)

What was measured:
[1] = test system: elastase-induced pulmonary emphysema; experiment: Morphological and functional analyses of elastase-treated mice administered with AM; assay type: in vivo, C57BL/6 mice; conditions: day 28
Procedure: The remaining 42 mice were used to examine whether AM improves lung structure and lung function in elastase-induced pulmonary emphysema. The mice were intratracheally injected with swine pancreatic elastase (200 units/kg) or physiological saline at random, and assigned to continuous infusion of either AM or physiological saline. Based on this protocol, the following three groups were prepared: the sham treated mice administrated with physiological saline (the sham treated group, n=14), elastase-treated mice administered with physiological saline (the physiological saline group, n=14), and elastase-treated mice administrated with AM (the AM group, n=14). Each of the above-mentioned Examples was carried out according to the guidelines of Animal Management Ethics Committee of the National Cardiovascular Center (Osaka, Japan).
In fact, in the present invention, findings about lung functions (increase in lung volume and static lung compliance) and morphological findings (increase in the average alveolar diameter) confirmed that emphysematous changes were induced in the lungs by intratracheal injection of elastase, and these findings are consistent with the results from previous studies (Hayes J A, Korthy A, Snider G L. The pathology of elastase-induced panacinar emphysema in hamsters. J Pathol 1975; 117: 1-14; Kuraki T, Ishibashi M, Takayama M, Shiraishi M, Yoshida M. A novel oral neutrophil elastase inhibitor (ONO-6818) inhibits human neutrophil elastase-induced emphysema in rats. Am J Respir Crit Care Med 2002; 166: 496-500). 28 days after the injection of elastase or physiological saline, the mice were anesthetized and their static lung compliance was measured using a computer-controlled small animal ventilator (FlexiVent; Scireq, Montreal, PQ, Canada) (n=7). Lungs were excised and then fixed for 24 hours, while the transpulmonary pressure was maintained at 25 cm H2O (n=7). The lung volume was measured by Scherle's method (Scherle W. A simple method for volumetry of organs in quantitative stereology. Mikroskopie 1970; 26: 57-60). The mean linear intercept, a morphometric parameter of pulmonary emphysema, was calculated for 20 randomly selected regions with a light microscope using a method known to those skilled in the art (Thurlbeck W M. Internal surface area and other measurements in emphysema. Thorax 1967; 22: 483-496). Morphological examination was conducted in a blind manner by three observers.
Further, paraffin sections were obtained from the lungs (n=7), and the tissue sections were stained for vWF to examine whether AM induced angiogenesis in the elastase-administered lungs. Three observers counted the number of vWF-positive blood vessels per mm^2 in a blind test manner.

[2] = test system: bone marrow-derived cells in the elastase-administered lungs; experiment: Homing and differentiation of bone marrow cells in elastase-treated GFP-positive bone marrow chimeric mice; assay type: in vivo, C57BL/6 mice; conditions: AM group vs physiological saline group, day 28 after elastase injection
Text: C57BL/6GFP-positive bone marrow chimeric mice were established for evaluating the dynamics of bone marrow cells.
The above-mentioned bone marrow chimeric mice were produced by a method known to those skilled in the art (Sata M, Saiura A, Kunisato A, Tojo A, Okada S, Tokuhisa T, Hirai H, Makuuchi M, Hirata Y, Nagai R. Hematopoietic stem cells differentiate into vascular cells that participate in the pathogenesis of atherosclerosis. Nat Med 2002; 8: 403-409). To put it briefly, a lethal dose of radiation (900 cGy) was applied to wild-type recipient C57BL/6 mice, and bone marrow cells (3×10^6 cells/300 μl) derived from the GFP mouse were transplanted through the tail vein. In order to quantify the reconstitution of mouse bone marrow, mononuclear cells and bone marrow cells in the peripheral blood were analyzed by flow cytometry four weeks after the bone marrow transplant. The percentages of the GFP-positive peripheral blood mononuclear cells and bone marrow cells in the chimeric mice were 87% to 93% and 85% to 90%, respectively, showing that the original stem cell group was replaced by the donor cell group.
Four weeks after the bone marrow transplant, swine pancreatic elastase (200 units/kg; Sigma, St. Louis, Mo.) was injected intratracheally to the chimeric mice. These mice were divided into two groups: the elastase-treated mice to be administered with physiological saline, and those to be administered with AM (each, n=5).
28 days after the injection of elastase (n=5) or saline solution (n=5), frozen sections were prepared from the lungs of the GFP-positive chimeric mice. The number of GFP-positive cells in the alveolar wall was counted and the result was indicated as the number per 100 alveoli. […] The numbers of GFP/cytokeratin double-positive cells and GFP/vWF double-positive cells were counted, and the results were indicated as the number per 100 alveoli. […]

[3] = test system: peripheral blood mononuclear cells; experiment: Dynamics of bone marrow cells after AM administration: peripheral blood mononuclear cells and Sca-1-positive cells; assay type: in vivo, C57BL/6 mice
Procedure: First, to investigate whether AM has an effect on the dynamics of bone marrow cells, AM or physiological saline was administered randomly to model animals. As the model animals, 48 ten-week old female C57BL/6 mice were used. The transgenic mice (C57BL/6 background) which ubiquitously express green fluorescence protein (GFP) were kindly offered by Professor Masaru Okabe (Osaka University, Japan) (Okabe M, Ikawa M, Kominami K, Nakanishi T, Nishimune Y. ‘Green mice’ as a source of ubiquitous green cells. FEBS Lett 1997; 407: 313-319).
AM (1 μg, 2 μg, or 5 μg in 100 μl physiological saline) was randomly administrated to the C57BL/6 mice (each, n=8) by intraperitoneal injection every day for five days. The control mice were similarly administered with 100 μl physiological saline every day for five days (n=8).
Furthermore, AM or physiological saline was administered to other mice (each, n=8) with a subcutaneous osmotic mini-pump (Alzet, Palo Alto, Calif.) at a delivery rate of 0.05 μg/kg/min for five days. Blood samples were collected on day 5, and mononuclear cells were isolated using Histopaque-1083 (Sigma) by a method known to those skilled in the art (Asahara T, Takahashi T, Masuda H, Kalka C, Chen D, Iwaguro H, Inai Y, Silver M, Isner J M. VEGF contributes to postnatal neovascularization by mobilizing bone marrow-derived endothelial progenitor cells. EMBO J 1999; 18: 3964-3972). The mononuclear cells were counted manually and analyzed with respect to the expression of Sca1-FITC (Sca-1-positive cells: BD Pharmingen, San Diego, Calif.). The immunofluorescence-labeled cells were analyzed by a quantitative flow cytometry using the FACSCalibur Flow Cytometer (BD Biosciences, Mountain View, Calif.). An antibody with the same isotype (BD Pharmingen) was used as a control.

[4] = test system: bone marrow-derived cells in ischemic cardiac muscle; experiment: Dynamic analysis of bone marrow-derived cells in a rat model of myocardial infarction; assay type: in vivo, GFP chimeric rats; conditions: acute myocardial infarction, AM 0.05 μg/kg/min subcutaneously for seven days vs control group
Procedure: Acute myocardial infarction was produced in GFP chimeric rats (rats expressing GFP in the bone marrow cells) by thoracotomy and then ligation of the anterior descending coronary artery (Fujii T. et al., Am J Physiol Heart Circ Physiol. 288(3): H1444-50, 2005).
After local ischemia is created in the heart by ligation, 0.05 μg/kg/min of AM (the AM group) or 0.9% physiological saline (the control group) was subcutaneously administered for seven days via an osmotic pressure pump.
After acute myocardial infarction was produced, the distributions of bone marrow-derived cells (confirmed by GFP expression), vascular endothelial cells (confirmed by vWF, an endothelial cell marker), and cardiac muscle cells (confirmed by desmin, a cardiac muscle cell marker) in the myocardial infarct area were confirmed. Further, the total sum of the GFP-expressing cell number, vWF-expressing cell number, and desmin-expressing cell number was examined to confirm the states of regeneration of blood vessel and cardiac muscle in the AM group and control group.

[5] = elastase-treated mice, continuous AM infusion

## adrenomedullin [AM]
[1]; elastase-administered lungs, AM vs physiological saline group
  number of vWF-positive lung blood vessels: significantly increased
[1]; elastase-injected mice, continuous AM infusion
  histological changes (air space enlargement accompanied by destruction of the alveolar wall): decreased
[1]; [5]
  average alveolar diameter (mean linear intercept): increase over the sham treated group: reduced
  increase in static lung compliance: significantly reduced
  magnitude of the increase in lung volume: reduced
[2]
  number of GFP-positive cells incorporated in the lung (alveolar wall, per 100 alveoli): significantly larger
  number of GFP/cytokeratin double-positive cells (per 100 alveoli): significantly larger
  number of GFP/vWF double-positive cells in the alveolar wall: larger
[3]; AM 1 μg/animal, intraperitoneal injection every day for five days, day 5
  number of the peripheral blood mononuclear cells: 120 % of the physiological saline group
[3]; AM 5 μg/animal, intraperitoneal injection every day for five days, day 5
  number of the peripheral blood mononuclear cells: 140 % of the physiological saline group
[3]; AM 1, 2 or 5 μg intraperitoneal every day for five days, day 5
  number of the peripheral blood mononuclear cells (dose dependence): increased in a dose-dependent manner
[3]; continuous AM, subcutaneous osmotic mini-pump 0.05 μg/kg/min for five days, day 5
  number of the peripheral blood mononuclear cells: 131 % of the physiological saline group
[3]; continuous AM, subcutaneous osmotic mini-pump 0.05 μg/kg/min for five days, day 5, flow cytometry
  frequency of Sca-1-positive cells: 200 % of the physiological saline group
[4]
  regeneration of cardiac muscles by bone marrow-derived cells (GFP- and desmin-expressing cells): significantly enhance
  revascularization by bone marrow cells (GFP- and vWF-expressing cells): significantly increase
